Values after ≈ are worked out from the molar mass of the structure shown.
SMILES | solubility [µM] | logP
CCOC(=O)C(C)OC(=O)c1cc(Oc2ccc(C(F)(F)F)cc2Cl)ccc1[N+](=O)[O-] (centres undefined) | 0.217 (≈ 0.1 µg/mL) | –
CCC(=O)n1ncc2c(O)ncnc21 | – | 0.3
COc1ccc(C(N)=S)cc1 | – | 1.63
CC=CCCCCC | – | 4.51
COC1=CC(=O)C=CC1=O | – | -0.06
Clc1ccc2ccc(Cl)cc2c1 | – | 4.81
CCC(C)C(NC(=O)c1cn(CC)c2nc(C)ccc2c1=O)C(=O)OC (centres undefined) | – | 3.15
CNC(=O)CCc1c[nH]c2ccccc12 | – | 1.23
CC(C)(C)C1CCC(O)CC1 (centres undefined) | – | 3.23
CNS(=O)(=O)c1ccc(Cl)cc1 | – | 1.92
Cc1nnc(-c2ccccc2)c(=O)n1N | – | 0.83
CN(CCO)C(=O)COC(=O)c1ccccc1O | – | 0.86
COc1ccccc1OCC(O)CO (centres undefined) | – | 1.39
Nc1ccc(Cc2ccc(N)c(Cl)c2)cc1Cl | 52 (≈ 13.9 µg/mL) | –
O=C1OC(c2ccc(O)cc2)(c2ccc(O)cc2)c2ccccc21 | – | 2.89
CCCc1oc(C)cc(=O)c1O | – | 1.4
CCON=C(CC)C1=C(O)CC(c2c(C)cc(C)cc2C)CC1=O (centres undefined) | – | 4.46
O=C1CCC(=O)N1c1cc(Cl)cc(Cl)c1 | – | 1.4
O=C1CC(c2ccccc2)Oc2ccccc21 (centres undefined) | – | 3.14
CCn1ccc(=O)c(O)c1 | – | -0.4
Cc1cc(Cc2ccc(Cl)cc2Cl)c(Cl)cc1Cl | – | 7.43
CN(C)C1CSSC1 | 13400 (≈ 2000 µg/mL) | –
COc1ccc(N=C=S)cc1 | – | 3.58
CC(=O)Nc1ccc2c(c1)Cc1cc([N+](=O)[O-])ccc1-2 | – | 3.08
O=C(O)CCCCc1ccccc1 | – | 2.94
Cc1c(CNc2ccccc2)cnc2nc(N)nc(N)c12 | – | 2.02

SMILES | solubility [µM] | logP
C[C@H](CS)C(=O)N1CCC[C@H]1C(=O)O | – | 0.34
CCN1CCC(CNC(=O)c2cc(S(=O)(=O)CC)ccc2OC)C1 (centres undefined) | – | 1.31
CCc1c(O)c(=O)ccn1C | – | -0.2
CCCCCCCCCC1(CC)C(=O)NC(=O)NC1=O | – | 4
Clc1cc2c(Cl)c(Cl)c(Cl)c(Cl)c2cc1Cl | – | 7.7
CC(C)(C)NSc1nc2ccccc2s1 | – | 4.67
Cc1cn(C2CC(O)C(CN)O2)c(=O)[nH]c1=O (centres undefined) | – | -2.05
CCCCCCCCCCCCCCO | – | 6.03
N=C(N)NN=Cc1ccccc1[N+](=O)[O-] | – | 0.53
O=C(O)CN(CC(=O)O)Cc1cc2c(c(O)c1O)C(=O)c1ccccc1C2=O | 15600 (≈ 6000 µg/mL) | –
NS(=O)(=O)c1nn2c(=Nc3ccccc3)snc2s1 | – | 2.57
CCOC(=O)C1=C(C)NC(C)=C(C(=O)OC)C1c1cccc([N+](=O)[O-])c1 (centres undefined) | – | 2.88
C=CCN1CCC(CNC(=O)c2cc3nn[nH]c3cc2OC)C1 (centres undefined) | – | 0.95
CCCCCCC(C)=O | – | 2.37
COCCn1cnc2[nH]c(=O)n(C)c(=N)c21 | – | -1.49
CN1CC=C(c2ccc(Cl)cc2)CC1 | – | 3.32
C[Si](C)(C)O[Si](C)(C)O[Si](C)(C)O[Si](C)(C)C | – | 8.21
Cc1nc(N)nc(C(Cl)(Cl)Cl)n1 | – | 1.77
C=CCC1(CC(C)O)C(=O)NC(=O)NC1=O (centres undefined) | – | -0.05
CC(CCC(=O)NCC(=O)O)C1CCC2C3C(O)CC4CC(O)CCC4(C)C3CCC12C (centres undefined) | – | 2.12
COc1c(Cl)c(Cl)c(Cl)c(Cl)c1Cl | – | 5.45
CN1C(=O)CC(=O)N(c2ccccc2)c2cc(Cl)ccc21 | – | 2.12
NS(=O)(=O)c1nc2ccc([N+](=O)[O-])cc2s1 | – | 1.36
COc1c(Cl)cc(Cl)cc1Cl | – | 4.11
c1ccc(Cn2ccnc2)cc1 | – | 1.6
CC(C)C1(C)N=C(c2nc3ccccc3cc2C(=O)O)NC1=O (centres undefined) | – | 1.86

SMILES | solubility [µM] | logP
CC(O)COC(=O)[C@@H](N)Cc1ccc(O)c(O)c1 (some centres undefined) | – | -0.49
Clc1c(Cl)c(Cl)c2c(Cl)c(Cl)c(Cl)c(Cl)c2c1Cl | 0.000198 (≈ 8e-05 µg/mL) | 8.5
C[C@H](CCC(=O)O)[C@H]1CC[C@H]2[C@@H]3[C@H](O)C[C@@H]4C[C@H](O)CC[C@]4(C)[C@H]3C[C@H](O)[C@]12C | – | 2.02
COc1ccc(-c2cc(C#N)c(Cl)nc2C)cc1 | – | 3.38
CC(=O)Nc1nc(=O)c2ncn(COCCOC(C)=O)c2[nH]1 | – | -0.85
CC(C)c1cccc(-c2ccccc2)c1 | – | 5.33
CCCCc1oc(C)cc(=O)c1O | – | 1.92
O=C(O)c1cc(Oc2ccc(C(F)(F)F)cc2Cl)ccc1[N+](=O)[O-] | – | 3.7
CC(C)COC(=O)c1cc(=O)[nH]c(=O)[nH]1 | – | 1.01
CCOC(=O)c1ccc(OCC)cc1 | – | 3.6
CN(C)P(=O)(N1CCCC1)N1CCCC1 | – | 1.88
CCCCc1c(C)nc(NCC)nc1O | – | 2.22
COc1ccc2c3c1O[C@H]1[C@@H](O)C=C[C@H]4[C@@H](C2)NCC[C@@]341 | – | 0.69
Cc1ccc(C(C)C)c(Cl)c1Cl | – | 5.5
O=[N+]([O-])c1cncn1CCN1CCOCC1 | – | 0.07
CC(=NN=C(N)N)c1cccs1 | – | 1.05
Cc1ccc(Cl)cc1[N+](=O)[O-] | – | 3.05
ClC1=C(Cl)C2(Cl)C3C(Cl)C=CC3C1(Cl)C2(Cl)Cl (centres undefined) | – | 6.1
CC(=O)NCCc1ccccc1 | – | 1.19
CC(=O)OCN1Cc2ccccc2C1=O | – | 0.99
CCCCC(OC(Cc1ccccc1)C(=O)N1CCC(OCOC)CC1)C(=O)NC(CC1CCCCC1)C(O)CC(C(=O)NCCNc1n[nH]c(N)n1)C(C)C (centres undefined) | – | 4
CCOC(=O)c1ccccc1S(=O)(=O)NC(=O)Nc1nc(Cl)cc(OC)n1 | – | 2.5
CN(C)c1cnn(-c2ccccc2)c(=O)c1Cl | – | 1.55
CC(CCC(=O)O)C1CCC2C3C(O)C(O)C4CC(O)CCC4(C)C3CCC12C (centres undefined) | – | 2.8
O=C(OCCOCCOCCO)c1ccccc1 | – | 1.09
CC(CCC(=O)O)C1CCC2C3C(O)CC4CC(O)CCC4(C)C3CCC12C (centres undefined) | – | 3
